The values that follow come from a melting point compilation (Tetko et al.; mined from patent text by program, amines drawn as free bases though some values may be those of a salt).

Some results are limits rather than exact numbers.

On to `O=C1Nc2c(Br)cc(Br)c3cccc1c23`, for which the melting point lay within 259 to 260 °C.
The figure for `COc1ccc(F)cc1C1CC(=O)CC(=O)C1` is 160 to 161 °C; for `CS(=O)(=O)c1cc(C(=O)O)c(N)cc1Cl` it is 284 to 286 °C.
The figure for `CSCc1cccc(-c2nc(=O)c3ccccc3s2)n1` is 152 to 153 °C; for `COc1cc(Br)c(OC)c2c1C=CCC2` it is 110 to 111 °C.
Then `COCCNC(N)=Nc1nc(-c2cccc(CNC(C)=O)c2)cs1`, with 123 to 124 °C; and `Cc1ccccc1-c1nc2n(c1Br)-c1cccnc1Nc1ccccc1-2`, with 220 to 222 °C; and `O=C(c1ccccc1)c1ccc([N+](=O)[O-])c(CO)c1`, with 71.3 °C.
With `O=C(Cn1ccnc1)Nc1cccc2nc(N[C@@H]3CCc4ccccc43)ccc12`, the melting point stood at 226 °C.
Then `COc1ccc(C2CNCCc3c2cc(OC)c(OC)c3C)cc1` (stereo unspecified), with 100 to 111 °C; and `CC(NSc1nc2ccccc2s1)c1ccccc1` (stereo unspecified), with 50 to 53 °C.
Then `N=C(N)c1ccc(-c2ccc(N3CCCN(CC(=O)O)C3=O)cc2)cc1`, with more than 200 °C.
Then `O=C(COc1ccc(Cl)cc1)c1ccccc1`, with 81 to 86 °C; and `CCOCn1c(-c2ccc(Cl)cc2)c(S(=O)(=O)c2ccc(Cl)cc2)c(Br)c1C(F)(F)F`, with 107 to 112 °C.
The compound `CN1C(=O)Cc2ccsc2S1(=O)=O` came in with a melting point of 136 to 137 °C.
For the compound `CCCCCCCCCCCCc1nnn(C(C(N)=O)(c2ccccc2)c2ccc(F)cc2F)n1` (stereo unspecified), the melting point lay in the range of 62 to 64 °C.
The figure for `Clc1ccc(-c2cc(C3CC3)nc(Cl)n2)cc1` is 70 to 72 °C; for `COc1ccc(S(=O)(=O)N2c3ccccc3-c3ccccc3C2C)cc1C` (stereo unspecified) it is 171 to 173 °C; for `Nc1nc2ccccc2c2c1nc(-c1ccccc1)n2OCc1ccccc1` it is 177 to 179 °C.
The figure for `CCc1ccc(C(=O)N[C@@H]2CCc3cccc(N4CCN(C)CC4)c3C2)cc1` is 177 to 178 °C; for `C=CS(=O)(=O)c1ccc(/C(=C\C2CCCCC2)C(=O)OC)cc1Cl` it is 105 to 108 °C; for `CC(=O)SCC(C)C(=O)Nc1cncc(C(=O)O)c1` (stereo unspecified) it is 154 to 158 °C.
For `CCCc1ncc(/C=C(\Cc2cccs2)C(=O)O)n1Cc1ccccc1[N+](=O)[O-]`, the melting point was determined as 223 °C.
Take `CCCCCCn1c2ccccc2c2ccccc21`: the melting point is 62.5 to 64.1 °C.
The compound `Cc1nn(-c2c(Cl)cc(C(F)(F)F)cc2Cl)nc1Br` came in with a melting point of 82 °C.
Then `CCCCCCC(=N)NC(=S)Nc1ccc(F)cc1`, with 75 to 76 °C.
The figure for `COc1ccc(/C(C)=C\c2ccc(C(=O)O)cc2)cc1C(C)(C)C` is 182 to 184 °C.
For the compound `N#CCCOc1cccc(O)c1C=O`, the melting point lay within 84 to 86 °C.
Then `CS(=O)(=O)NCCCCn1c(CC2CC2)nc2c(N)nc3ccccc3c21`, with 200 to 201 °C.
Then `CN(C)c1nn(-c2c(Cl)cc(C(F)(F)F)cc2Cl)c(=O)n1C`, with 105 to 107 °C; and `O=[N+]([O-])c1ccccc1Nc1ccc(Nc2nccs2)cc1`, with 195 to 197 °C.
Take `COc1ccc(CC2C(=O)N(Cc3ccccc3)c3ccccc3NC2C)cc1` (stereo unspecified): the melting point lay within 136 to 137 °C.
Then `O=C(NCc1cccnc1)Nc1ccc([N+](=O)[O-])cc1`, with 220 to 222 °C; and `COc1ccc(-c2[nH]nc3c2C(=O)c2c(NC(=O)C4CCCC4)cccc2-3)cc1`, with 267 °C.
The figure for `Cc1cc(Nc2cncc(NC3CCCCC3)n2)n[nH]1` is 194 to 196 °C; for `O=C(Oc1ccc2c(OC(=O)c3ccc(O)c(Cl)c3)c3ccccc3cc2c1OC(=O)c1ccc(O)c(Cl)c1)c1ccc(O)c(Cl)c1` it is 238 °C.
The figure for `O=C(CC1CSCCC1=O)c1ccc(Br)cc1` (stereo unspecified) is 87.5 to 89.5 °C; for `N#CCOc1cccc2onc(N)c12` it is 133 to 136 °C.
Regarding `CCC(=O)Nc1ccc(OC)c(=O)cc1`, the melting point was in the range of 116 to 118 °C.
The figure for `Cc1ccc(NCC(=O)Nc2ccc(S(N)(=O)=O)cc2Cl)cc1` is 215 to 216 °C; for `CSc1ccc(C(=O)c2c(C)cc3n2CCC3C(=O)OC(C)c2ccccc2)n1C` (stereo unspecified) it is 122 to 123 °C.
The figure for `CCOC(=O)c1ccsc1Nc1ccc(F)cc1[N+](=O)[O-]` is 125 °C; for `CC(=N)N(C)C1CCCCC1` it is 108 to 110 °C.
Regarding `CCN(CC)C(=O)Nc1ccc(S(=O)(=O)n2c(=O)n(-c3ccccc3Cl)c3cc(Cl)ccc32)cc1`, the melting point came out at 222 °C.
The figure for `O=C(Cc1cccc2ccccc12)N1CC=C(c2cccc(C(F)(F)F)c2)CC1` is 137 to 140 °C; for `OC1(CNCc2ccccc2)CCN(CCCc2c[nH]c3ccc(-n4cnnc4)cc23)CC1` it is more than 60 °C.
Then `Nc1c(F)c(Cc2ccc(F)cc2)nc(C=O)c1Cl`, with 109 to 111 °C; and `CCOC(=O)N1CCC(Nc2nc3cccnc3n2Cc2ccco2)CC1`, with 149 °C; and `CC(C)(C)OC(=O)NCc1ccc(C(=O)NCCC(=O)OCc2ccccc2)cc1`, with 113 to 116 °C.
The figure for `Cc1cc2c3c(c1)c1c(n3CCNC2)CCC1` is 168 to 170 °C.
`COc1ccc(N2C(=O)N(c3cccc(C(N)=O)c3)c3nc(Nc4cccc(CCN(C)C)c4)ncc3C2C)cc1` (stereo unspecified) registered a melting point of 215 to 230 °C.
On to `O=NSC1(CCOC(=O)CCC(=O)O)C2CC3CC(C2)CC1C3` (stereo unspecified), for which the melting point lay in the range of 63 to 70 °C.
The figure for `Cc1ncnc(-c2ccc(Oc3ccc([N+](=O)[O-])cc3)cc2)n1` is 148 to 149 °C.
As to `CCCCc1nnc(SCc2ccc(Cl)cc2)n1Cc1ccc(OC(C(=O)O)c2ccccc2Cl)cc1` (stereo unspecified), the melting point lay in the range of 100 to 102 °C.
The figure for `COc1cc(CF)nc(N)n1` is 119 to 121 °C.
Compound `Cn1cc(C2=C(c3c4n(c5ccccc35)CCC(CCN=[N+]=[N-])C4)C(=O)NC2=O)c2ccccc21` (stereo unspecified) displayed a melting point of 262 to 264 °C.
The figure for `COc1cccc(OC)c1-c1cc(C(=O)NC2(C(=O)O)C3CC4CC(C3)CC2C4)nn1-c1ccc(N)cc1C` (stereo unspecified) is 205 °C.
The figure for `Cc1cccc(-c2n[nH]cc2-c2ccc(F)c(-c3ccc(S(C)(=O)=O)cc3)c2)n1` is 100 to 102 °C; for `Cc1ccc([N+](=O)[O-])c2c1CCCC2=O` it is 104 to 107 °C; for `COC(=O)Cc1cc(OC)ccc1O` it is 69 to 70 °C.
The figure for `CS(=O)(=O)Nc1cc([C@@H](O)CNC2CCN(c3ccc(CCC(=O)O)cc3)CC2)ccc1O` is 130 to 133 °C; for `CCCCC(=O)Oc1ccc(-c2ccc(C#N)cc2)cc1` it is 36.5 to 36.9 °C; for `CN(C)CCN(C(=O)c1cc([N+](=O)[O-])ccc1Br)c1ccnc2cc3c(cc12)OCO3` it is 204 to 205 °C.
In the case of `CC(=O)N(C)c1cccc(-c2ccc3nncn3n2)c1`, the melting point is 166 to 169 °C.
`CC(C)(C)c1nc(O)cc(OC(F)F)n1` registered a melting point of 156 °C.
Turning to `COc1cc(OC)nc(Oc2cccc3c2C(=O)OC3C)n1` (stereo unspecified), the melting point lay within 190 to 191 °C.

By melting point is commonly meant the temperature, or range, at which the solid turns liquid.
